# Assay results: the supplement of paper PMC10307832
# Key:
# Assay in all cases: relative viability (nuclei count vs DMSO), 5 days (fraction); higher = more cells survive
# EBC-1 = system: EBC-1
# How it was run: (§1)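 Values are medians from duplicate plates. Each reflects relative viability, defined as the nuclei count of treated wells over that of vehicle wells. Lung cancer cell lines in 1536-well plates were pin-tool dosed one day after seeding with one drug alone or with a fixed anchor-drug dose plus five library-drug doses (not always all listed) in √10 steps, then fixed, stained and imaged at 4× after 5 days.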
# NCI-H1703 = system: NCI-H1703
# How it was run: as §1
# Calu-6 = system: Calu-6
# How it was run: as §1
# A549 = system: A549
# How it was run: as §1
# NCI-H1299 = system: NCI-H1299
# How it was run: as §1
# NCI-H1563 = system: NCI-H1563
# How it was run: as §1
# IA-LM = system: IA-LM
# How it was run: as §1
structure (smiles),measurement,setting,value
O=C(O)CCCCC(CCSCc1ccccc1)SCc1ccccc1 (stereo not drawn) [CPI-613] + C[C@@H](Oc1cc(-c2cnn(C3CCNCC3)c2)cnc1N)c1c(Cl)ccc(F)c1Cl [Crizotinib] (partner 1 µM),relative viability,EBC-1; first compound 5 µM,0.179
same,relative viability,EBC-1; first compound 15.81 µM,0.198
same,relative viability,EBC-1; first compound 50 µM,0.197
same,relative viability,EBC-1; first compound 158.11 µM,0.133
same,relative viability,EBC-1; first compound 500 µM,0.167
same,relative viability,NCI-H1703; first compound 5 µM,0.582
same,relative viability,NCI-H1703; first compound 15.81 µM,0.487
same,relative viability,NCI-H1703; first compound 50 µM,0.531
same,relative viability,NCI-H1703; first compound 158.11 µM,0.31
same,relative viability,NCI-H1703; first compound 500 µM,0.284
same,relative viability,Calu-6; first compound 5 µM,0.802
same,relative viability,Calu-6; first compound 15.81 µM,0.622
same,relative viability,Calu-6; first compound 50 µM,0.741
same,relative viability,Calu-6; first compound 158.11 µM,0.556
same,relative viability,Calu-6; first compound 500 µM,0.346
same,relative viability,A549; first compound 5 µM,0.738
same,relative viability,A549; first compound 15.81 µM,0.595
same,relative viability,A549; first compound 50 µM,0.526
same,relative viability,A549; first compound 158.11 µM,0.191
same,relative viability,A549; first compound 500 µM,0.145
same,relative viability,NCI-H1299; first compound 5 µM,0.926
same,relative viability,NCI-H1299; first compound 15.81 µM,0.942
same,relative viability,NCI-H1299; first compound 50 µM,0.944
same,relative viability,NCI-H1299; first compound 158.11 µM,0.889
same,relative viability,NCI-H1299; first compound 500 µM,0.861
same,relative viability,NCI-H1563; first compound 5 µM,0.834
same,relative viability,NCI-H1563; first compound 15.81 µM,0.877
same,relative viability,NCI-H1563; first compound 50 µM,0.857
same,relative viability,NCI-H1563; first compound 158.11 µM,0.477
same,relative viability,NCI-H1563; first compound 500 µM,0.211
same,relative viability,IA-LM; first compound 5 µM,0.584
same,relative viability,IA-LM; first compound 15.81 µM,0.549
same,relative viability,IA-LM; first compound 50 µM,0.621
same,relative viability,IA-LM; first compound 158.11 µM,0.454
same,relative viability,IA-LM; first compound 500 µM,0.22
Cc1cnc(-c2cnc(NCCNc3ccc(C#N)cn3)nc2-c2ccc(Cl)cc2Cl)[nH]1 + C[C@@H](Oc1cc(-c2cnn(C3CCNCC3)c2)cnc1N)c1c(Cl)ccc(F)c1Cl [Crizotinib] (partner 1 µM),relative viability,EBC-1; first compound 0.08 µM,0.191
same,relative viability,EBC-1; first compound 0.253 µM,0.217
same,relative viability,EBC-1; first compound 0.8 µM,0.191
same,relative viability,EBC-1; first compound 2.53 µM,0.19
same,relative viability,NCI-H1703; first compound 0.08 µM,0.93
same,relative viability,NCI-H1703; first compound 0.253 µM,0.622
same,relative viability,NCI-H1703; first compound 0.8 µM,0.861
same,relative viability,NCI-H1703; first compound 2.53 µM,0.73
same,relative viability,Calu-6; first compound 0.08 µM,0.862
same,relative viability,Calu-6; first compound 0.253 µM,0.752
same,relative viability,Calu-6; first compound 0.8 µM,0.81
same,relative viability,Calu-6; first compound 2.53 µM,0.513
same,relative viability,A549; first compound 0.08 µM,0.784
same,relative viability,A549; first compound 0.253 µM,0.692
same,relative viability,A549; first compound 0.8 µM,0.964
same,relative viability,A549; first compound 2.53 µM,0.803
same,relative viability,NCI-H1299; first compound 0.08 µM,0.963
same,relative viability,NCI-H1299; first compound 0.253 µM,0.952
same,relative viability,NCI-H1299; first compound 0.8 µM,0.989
same,relative viability,NCI-H1299; first compound 2.53 µM,0.845
same,relative viability,NCI-H1563; first compound 0.08 µM,0.92
same,relative viability,NCI-H1563; first compound 0.253 µM,0.891
same,relative viability,NCI-H1563; first compound 0.8 µM,0.767
same,relative viability,NCI-H1563; first compound 2.53 µM,0.903
same,relative viability,IA-LM; first compound 0.08 µM,0.835
same,relative viability,IA-LM; first compound 0.253 µM,0.817
same,relative viability,IA-LM; first compound 0.8 µM,0.903
same,relative viability,IA-LM; first compound 2.53 µM,0.803
O=c1[nH]c2ccccc2n1C1CCN(CCCC(c2ccc(F)cc2)c2ccc(F)cc2)CC1 [Pimozide] + CS(=O)(=O)CCNCc1ccc(-c2ccc3ncnc(Nc4ccc(OCc5cccc(F)c5)c(Cl)c4)c3c2)o1 [Lapatinib] (partner 2 µM),relative viability,EBC-1; first compound 0.08 µM,0.208
same,relative viability,EBC-1; first compound 0.253 µM,0.213
same,relative viability,EBC-1; first compound 0.8 µM,0.192
same,relative viability,EBC-1; first compound 2.53 µM,0.223
same,relative viability,EBC-1; first compound 8 µM,0.162
same,relative viability,NCI-H1703; first compound 0.08 µM,1.02
same,relative viability,NCI-H1703; first compound 0.253 µM,0.944
same,relative viability,NCI-H1703; first compound 0.8 µM,0.763
same,relative viability,NCI-H1703; first compound 2.53 µM,0.958
same,relative viability,NCI-H1703; first compound 8 µM,0.865
same,relative viability,Calu-6; first compound 0.08 µM,1.08
same,relative viability,Calu-6; first compound 0.253 µM,1.07
same,relative viability,Calu-6; first compound 0.8 µM,1.02
same,relative viability,Calu-6; first compound 2.53 µM,1.02
same,relative viability,Calu-6; first compound 8 µM,0.933
same,relative viability,A549; first compound 0.08 µM,0.912
same,relative viability,A549; first compound 0.253 µM,1.01
same,relative viability,A549; first compound 0.8 µM,0.976
same,relative viability,A549; first compound 2.53 µM,0.882
same,relative viability,A549; first compound 8 µM,0.802
same,relative viability,NCI-H1299; first compound 0.08 µM,0.977
same,relative viability,NCI-H1299; first compound 0.253 µM,0.972
same,relative viability,NCI-H1299; first compound 0.8 µM,0.91
same,relative viability,NCI-H1299; first compound 2.53 µM,0.937
same,relative viability,NCI-H1299; first compound 8 µM,0.875
same,relative viability,NCI-H1563; first compound 0.08 µM,0.955
same,relative viability,NCI-H1563; first compound 0.253 µM,0.829
same,relative viability,NCI-H1563; first compound 0.8 µM,0.933
same,relative viability,NCI-H1563; first compound 2.53 µM,0.756
same,relative viability,NCI-H1563; first compound 8 µM,0.533
same,relative viability,IA-LM; first compound 0.08 µM,0.888
same,relative viability,IA-LM; first compound 0.253 µM,0.987
same,relative viability,IA-LM; first compound 0.8 µM,0.64
same,relative viability,IA-LM; first compound 2.53 µM,0.761
same,relative viability,IA-LM; first compound 8 µM,0.893
